Measured values: ChEMBL document CHEMBL3627598, “Synthesis of novel compounds containing morpholine and 5(4H)-oxazolone rings as potent tyrosinase inhibitors” (Bioorg Med Chem, 2015)

Tests used:
[1] = target: T1, Tyrosinase (Agaricus bisporus, UniProt O42713); assay: Inhibition of mushroom tyrosinase using L-DOPA as substrate assessed as formation of L-DOPA chrome preincubated for 10 mins followed by addition of substrate measured over 10 mins by […]
T1 sequence (O42713 whole entry): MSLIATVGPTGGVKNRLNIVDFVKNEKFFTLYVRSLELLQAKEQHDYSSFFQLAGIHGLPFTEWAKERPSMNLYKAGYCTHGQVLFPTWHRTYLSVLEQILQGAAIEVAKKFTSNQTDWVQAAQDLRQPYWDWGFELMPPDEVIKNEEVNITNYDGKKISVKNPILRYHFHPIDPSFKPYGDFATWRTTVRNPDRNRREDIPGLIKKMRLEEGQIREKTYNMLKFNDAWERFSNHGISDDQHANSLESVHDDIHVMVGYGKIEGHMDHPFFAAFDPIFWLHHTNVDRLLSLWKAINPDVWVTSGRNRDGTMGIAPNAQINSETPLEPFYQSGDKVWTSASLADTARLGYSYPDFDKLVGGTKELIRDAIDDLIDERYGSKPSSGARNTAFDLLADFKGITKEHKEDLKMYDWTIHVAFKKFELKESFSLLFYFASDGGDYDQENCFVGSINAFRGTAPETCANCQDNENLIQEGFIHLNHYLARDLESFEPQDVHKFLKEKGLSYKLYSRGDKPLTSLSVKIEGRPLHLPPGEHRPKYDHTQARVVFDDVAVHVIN

[2] = Cytotoxicity against mouse B16F10 cells assessed as cell viability at 20 ug/ml incubated for 72 hrs by MTT assay; assay type: cell-based, B16-F10; conditions: read-out: Activity
[3] = target: T2, Tyrosinase (Mus musculus) (UniProt P11344); assay: Inhibition of tyrosinase in mouse B16F10 cells assessed as reduction of melanin production at 20 ug/ml incubated for 72 hrs; assay type: cell-based; conditions: B16-F10
T2 sequence (whole entry): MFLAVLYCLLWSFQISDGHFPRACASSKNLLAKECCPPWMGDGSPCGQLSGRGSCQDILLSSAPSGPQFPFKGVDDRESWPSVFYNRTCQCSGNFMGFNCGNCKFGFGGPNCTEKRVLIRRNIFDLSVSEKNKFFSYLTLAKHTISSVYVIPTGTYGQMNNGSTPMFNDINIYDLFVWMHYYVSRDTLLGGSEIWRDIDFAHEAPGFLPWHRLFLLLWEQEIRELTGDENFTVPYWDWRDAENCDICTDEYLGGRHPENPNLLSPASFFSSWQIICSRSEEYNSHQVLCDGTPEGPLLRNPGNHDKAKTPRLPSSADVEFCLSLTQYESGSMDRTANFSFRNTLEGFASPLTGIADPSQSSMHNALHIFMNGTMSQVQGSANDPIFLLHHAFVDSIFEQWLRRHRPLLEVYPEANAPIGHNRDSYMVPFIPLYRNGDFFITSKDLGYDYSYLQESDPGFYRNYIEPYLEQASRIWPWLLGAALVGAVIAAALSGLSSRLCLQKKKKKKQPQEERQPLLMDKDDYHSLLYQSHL

Row | SMILES | IC50 [1] [µM] | inhibition [3] [%] | viability at 72 h, 20 ug/ml [2] [%]
1 | O=C1OC(c2ccc(/N=N/c3ccc(N4CCOCC4)cc3)cc2)=N/C1=C/c1ccc(F)cc1Cl | 16 | 32.4 | 60.7
2 | O=C1OC(c2ccc(/N=N/c3ccc(N4CCOCC4)cc3)cc2)=N/C1=C/c1cccs1 | 13.7 | 31.2 | 56.7
3 | O=C1OC(c2ccc(/N=N/c3ccc(N4CCOCC4)cc3)cc2)=N/C1=C/c1ccc(F)cc1 | 15.8 | 38.8 | 57.2
4 | O=C1OC(c2ccc(/N=N/c3ccc(N4CCOCC4)cc3)cc2)=N/C1=C/c1ccccc1[N+](=O)[O-] | 20.3 | 30.7 | 58.1

Now from value to molecule, other results behind:

Row | IC50 [1] [µM] | inhibition [3] [%] | SMILES | viability at 72 h, 20 ug/ml [2] [%]
5 | 18.9 | 34.4 | O=C1OC(c2ccc(/N=N/c3ccc(N4CCOCC4)cc3)cc2)=N/C1=C/c1ccc(Cl)cc1 | 61.9
6 | 17.2 | 40.1 | O=C1OC(c2ccc(/N=N/c3ccc(N4CCOCC4)cc3)cc2)=N/C1=C/c1ccccc1 | 62.9
